Laboratory results from PMC3992122 (Molecular cancer therapeutics, 2012).

Columns and labels:
[1] = tested on: imatinib- and sunitinib-resistant GISTs; conditions: phase II study; cited from earlier work
[2] = tested on: GIST after imatinib, sunitinib and nilotinib therapy; conditions: fourth-line, 400 mg twice daily, cited from earlier work
[3] = tested on: imatinib- or imatinib/sunitinib-resistant GIST; conditions: sorafenib 400 mg twice daily, cited from earlier work
[4] = molecular target: GIST48 cells (KIT V560D + D820A) (Homo sapiens, UniProt P10721, D820A/V560D); conditions: doses as low as 100 nmol/L
[5] = tested on: drug-resistant GIST; conditions: third-line treatment, cited from earlier work
[6] = tested on: GIST patients; conditions: GIST patients treated with sorafenib; cited from earlier work
[7] = tested on: imatinib-resistant GIST; conditions: second-line setting; cited from earlier work

Chain of GIST48 cells (KIT V560D + D820A) (P10721 26-976 V560D/D820A): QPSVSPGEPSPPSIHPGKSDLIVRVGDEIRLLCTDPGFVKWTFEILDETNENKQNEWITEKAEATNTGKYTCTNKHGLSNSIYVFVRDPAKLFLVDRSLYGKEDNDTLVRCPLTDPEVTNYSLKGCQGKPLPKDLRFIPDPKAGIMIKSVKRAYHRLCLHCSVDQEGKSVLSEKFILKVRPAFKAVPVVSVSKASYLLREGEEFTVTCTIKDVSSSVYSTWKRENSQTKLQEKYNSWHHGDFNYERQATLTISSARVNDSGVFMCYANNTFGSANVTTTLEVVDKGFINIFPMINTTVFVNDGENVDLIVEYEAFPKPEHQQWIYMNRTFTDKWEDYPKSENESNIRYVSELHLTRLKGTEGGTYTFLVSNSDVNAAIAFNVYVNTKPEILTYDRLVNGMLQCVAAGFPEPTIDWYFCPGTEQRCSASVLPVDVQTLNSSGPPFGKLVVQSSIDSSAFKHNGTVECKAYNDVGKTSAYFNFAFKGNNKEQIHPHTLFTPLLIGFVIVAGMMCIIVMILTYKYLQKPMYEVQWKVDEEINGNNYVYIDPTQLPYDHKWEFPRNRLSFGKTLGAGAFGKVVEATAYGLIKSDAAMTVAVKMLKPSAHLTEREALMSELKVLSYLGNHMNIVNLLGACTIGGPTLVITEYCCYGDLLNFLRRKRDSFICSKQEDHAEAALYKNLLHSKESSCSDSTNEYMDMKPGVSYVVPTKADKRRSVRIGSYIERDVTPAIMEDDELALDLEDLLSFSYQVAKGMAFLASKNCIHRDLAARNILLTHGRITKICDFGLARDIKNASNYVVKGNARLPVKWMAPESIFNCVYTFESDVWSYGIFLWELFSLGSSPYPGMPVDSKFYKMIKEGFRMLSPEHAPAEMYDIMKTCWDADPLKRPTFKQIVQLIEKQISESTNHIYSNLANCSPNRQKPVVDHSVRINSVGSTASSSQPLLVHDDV

SMILES: CNC(=O)c1cc(Oc2ccc(NC(=O)Nc3ccc(Cl)c(C(F)(F)F)c3)c(F)c2)ccn1 [Regorafenib]
- clinical benefit rate [1]: 55%
- median PFS [1]: 10 months

SMILES: CNC(=O)c1cc(Oc2ccc(NC(=O)Nc3ccc(Cl)c(C(F)(F)F)c3)cc2)ccn1 [Sorafenib]
- overall tumor control rate ([2]; 32 patients): 63%
- median PFS [2]: 4.6 months
- disease control rate ([3]; 38 patients): 68%
- hand-foot syndrome (grade 3-4 toxicity) [3]: 45%
- median OS [3]: 11.6 months
- patients requiring at least one dose reduction [3]: 63%
- rate of grade 3-4 toxicity [3]: greater than 50%
- inhibition of KIT phosphorylation [4]: 85%
- median OS ([5]; median follow-up of 7.5 months): had not been reached
- median PFS [5]: 4.6 months
- overall disease control rate [5]: 65%
- grade 3-4 anemia [6]: 7%
- grade 3-4 elevated liver enzymes or bilirubin [6]: 7%
- grade 3-4 fatigue [6]: 5%
- grade 3-4 hand-foot skin reaction [6]: 16%
- grade 3-4 hypertension [6]: 5%

SMILES: CCN(CC)CCNC(=O)c1c(C)[nH]c(/C=C2\C(=O)Nc3ccc(F)cc32)c1C [Sunitinib]
- disease control rate [7]: 65%
- median OS [7]: 17.2 months
